Patent US8318781B2, “G-protein-conjugated receptor agonist” (Japan Science and Technology Agency, priority 2007, dated 2012)

Tests used:
human GPR40 (hGPR40) [1] = target: T1, human GPR40 (hGPR40) (Homo sapiens, UniProt O14842); assay: Determination of intracellular Ca2+ concentration (FLIPR), cell line TXGPR40; format: cell-based; conditions: for EC50 / [Ca^2+]/GPR40 10 μM (ratio vs. LA): TXGPR40 cells; for EC50: maximum fluorescence intensity vs ligand concentration, read-out: [Ca^2+]/GPR40 pEC50 (converted); for agonistic activity for GPR40 (in words): cells in which GPR40 has been transgenically expressed; for [Ca^2+]/GPR40 10 μM (ratio vs. LA): relative fluorescence intensity vs LA at 10 μM
T1 construct: expressed in transfected cells; doxycycline-inducible expression vector

human GPR40 (hGPR40) [2] = target: T1, human GPR40 (hGPR40); assay: ERK assay, screening for GPR40 ligands in cell line TXGPR40; format: cell-based; conditions: TXGPR40 cells, class relative to LA; for ERK/GPR40 100 μM: ligand 100 μM

T1 sequence (O14842 whole entry): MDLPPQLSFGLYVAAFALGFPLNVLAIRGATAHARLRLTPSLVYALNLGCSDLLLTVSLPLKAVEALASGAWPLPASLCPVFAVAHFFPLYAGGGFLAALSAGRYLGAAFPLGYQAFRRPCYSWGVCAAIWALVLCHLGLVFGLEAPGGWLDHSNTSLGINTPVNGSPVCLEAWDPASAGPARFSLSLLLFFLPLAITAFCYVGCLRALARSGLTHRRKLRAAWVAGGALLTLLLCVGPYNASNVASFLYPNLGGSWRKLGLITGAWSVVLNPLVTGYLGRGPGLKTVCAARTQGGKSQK

Structure (SMILES) | EC50 (human GPR40 (hGPR40) [1]) [µM] | agonistic activity for GPR40 (in words) (human GPR40 (hGPR40) [1]) | [Ca^2+]/GPR40 10 μM (ratio vs. LA) (human GPR40 (hGPR40) [1]) | ERK/GPR40 100 μM (human GPR40 (hGPR40) [2]) | ERK/GPR40 10 μM (human GPR40 (hGPR40) [2]; ligand 10 μM)
O=C(O)CCCc1ccc(OCCN(c2ccccc2)c2nccs2)cc1 [NCG46] | 21.4 | showed a specific reactivity | 0.30 | ++ (++ denotes 50 to 100% of LA) | 
CN(C)c1ccc(N(CCOc2ccc(CCCC(=O)O)cc2)c2ccccn2)cc1 [NCG54] | 24 | showed a specific reactivity | 0.07 | ++ (++ denotes 50 to 100% of LA) | + (+ denotes 0 to 100% of LA)
